Active and inactive are the calls of the source. No cut-off for these calls is given here. Bounds are passed on as bounds.

The test system of one series is HL-60. Briefly: cells. The following applies: Homo sapiens, HL-60, 72 h.
A short description of another series: in vitro. The following applies: human, PrEC cells.
A further series deals with PC-3. In words: cells. The following applies: Homo sapiens, PC-3, 72 h.
Another series relates to LN-18. In words: cells. To be noted: Homo sapiens, LN-18, 72 h.
For series [1], the target named is T1, Lysine-specific histone demethylase 1A (Homo sapiens, UniProt O60341).
Description: Inhibition of human recombinant LSD1 using H3K4me2 peptide substrate preincubated for 15 mins followed by substrate addition and measured after 30 mins by fluorescence based assay
Series [2] concerns the target T1, Lysine-specific histone demethylase 1A. Briefly: Drug metabolism assessed as LSD1 (unknown origin) mediated entinostat release. The format is ADME.
The target is the same in series [3]. Briefly: Potency index, ratio of PCPA IC50 to test compound IC50 for inhibition of human recombinant LSD1.
The target is the same in series [4]. Briefly: Inhibition of LSD1 in human PC-3 cells assessed as fold increase in H3K4me2 to H3 ratio at 0.1 uM incubated for 24 hrs by Western blotting analysis (reference value: 1). The format is cell-based.
In series [5] the target is T2, Histone deacetylase (Homo sapiens) (UniProt Q13547+O15379+Q9UBN7+Q92769+Q9UQL6+Q8WUI4+Q9BY41+Q96DB2+P56524+Q9UKV0+Q969S8). In words: Inhibition of HDAC in human PC-3 cells assessed as fold increase in acetylated H3K9 to H3 ratio at 1 uM incubated for 24 hrs by Western blotting analysis (reference value: […]). The class given is cell-based. On the technique in general: In western blotting, separated proteins are transferred to a membrane and probed.

In series [6] the target is T1, Lysine-specific histone demethylase 1A. In words: Inhibition of LSD1 in human PC-3 cells assessed as fold increase in H3K4me2 to H3 ratio at 1 uM incubated for 24 hrs by Western blotting analysis (reference value: 1). The format is cell-based.
Series [7] has the same target. Briefly: Inhibition of LSD1 in human PC-3 cells assessed as increase in H3K4me2 level incubated for 24 hrs by Western blotting analysis. The class given is cell-based. To be noted: dose 0.1-1 µM.
The target is the same in series [8]. In words: Inhibition of LSD1 in human PC-3 cells assessed as fold increase in H3K4me2 to H3 ratio at 0.3 uM incubated for 24 hrs by Western blotting analysis (reference value: 1). The format is cell-based.
The target is the same in series [9]. Briefly: Drug metabolism assessed as LSD1 (unknown origin) mediated entinostat release incubated for 24 hrs by HPLC analysis. The class given is ADME.
Series [10] has as its target T2, Histone deacetylase (Homo sapiens). In words: Inhibition of HDAC in human PC-3 cells assessed as fold increase in acetylated H3K9 to H3 ratio at 0.1 uM incubated for 24 hrs by Western blotting analysis (reference value: […]). The class given is cell-based.
Series [11] shares this target. Briefly: Inhibition of HDAC in human PC-3 cells assessed as H3K9 acetylation at 0.1 to 1 uM incubated for 24 hrs by Western blotting analysis. The following applies: dose 0.1-1 µM. The format is cell-based.
The target is the same in series [12]. Briefly: Inhibition of HDAC in human PC-3 cells assessed as fold increase in acetylated H3K9 to H3 ratio at 0.3 uM incubated for 24 hrs by Western blotting analysis (reference value: 1). The format is cell-based.

Description for HL-60: Antiproliferative activity against human HL-60 cells incubated for 3 days by alamar blue assay
Description for LN-18: Antiproliferative activity against human LN-18 cells incubated for 3 days by alamar blue assay
Description for PC-3: Antiproliferative activity against human PC-3 cells incubated for 3 days by alamar blue assay
Description for in vitro: Cytotoxicity against human PrEC cells incubated for 3 days by alamar blue assay

Turning to `Nc1ccccc1NC(=O)c1ccc(CNC(=O)OCc2cccnc2)cc1` [ENTINOSTAT], the GI50 (as a rule, the concentration giving 50% growth inhibition) with HL-60 was found to be 0.214 µM; with PC-3 it was 0.087 µM; with LN-18, 0.917 µM. The same compound displayed a GI50 at 72 h in “in vitro” of 2.23 µM.
In the case of `CN(CCN(C)C1CC1c1ccccc1)C(=O)Nc1ccccc1NC(=O)c1ccc(CNC(=O)OCc2cccnc2)cc1` (stereo unspecified), the IC50 (commonly the concentration that inhibits the measured activity by half) in series [1] worked out at 50.3 µM. Moreover, in series [2], the Drug metabolism result is on record as “Metabolite_Notdetected”.
For `CN(CCN(C)C1CC1c1ccccc1)C(=O)Oc1ccc(COC(=O)Nc2ccccc2NC(=O)c2ccc(CNC(=O)OCc3cccnc3)cc2)cc1` (stereo unspecified), the Ratio IC50 in [3] came out at 40. The fold change (FC) in [4] amounted to 1.18; in [5], 2.01; in [6], 1.58; in series [8], 1.49; in series [10], 1.48; in series [12], 1.77. Also, it took 0.626 µM to reach half-maximal inhibition in series [1] (IC50). Besides, the figures for the GI50 in the series with HL-60, in the series on PC-3 and in the series with LN-18 were 4.49 µM, 1.18 µM and 5.62 µM, respectively. In addition, the inhibition result in series [7] is “Dose-Dependent Effect”. This compound also had a concentration for 50% growth inhibition (GI50) at 72 h in the series “in vitro” of over 100 µM. Moreover, the Drug metabolism result in [9] was “Metabolite_Detected”. The inhibition entry in series [11] is “Active”.

(Values after ChEMBL document CHEMBL5523698, “Design, synthesis, and biological evaluation of phenylcyclopropylamine-entinostat conjugates that selectively target cancer cells” (Bioorg Med Chem, 2024).)
